# Activity calls are given as the source filed them.
# Legend:
# [1] = biological target: Glyceraldehyde-3-phosphate dehydrogenase (Homo sapiens, UniProt P04406)
# [2] = biological target: T1, Alkaline phosphatase, tissue-nonspecific isozyme (Homo sapiens, UniProt P05186); test: human TNAP enzyme inhibitors, SAR follow-up, biochemical, luminescent, dose response (AID 1056)
# T1 sequence (P05186 whole entry): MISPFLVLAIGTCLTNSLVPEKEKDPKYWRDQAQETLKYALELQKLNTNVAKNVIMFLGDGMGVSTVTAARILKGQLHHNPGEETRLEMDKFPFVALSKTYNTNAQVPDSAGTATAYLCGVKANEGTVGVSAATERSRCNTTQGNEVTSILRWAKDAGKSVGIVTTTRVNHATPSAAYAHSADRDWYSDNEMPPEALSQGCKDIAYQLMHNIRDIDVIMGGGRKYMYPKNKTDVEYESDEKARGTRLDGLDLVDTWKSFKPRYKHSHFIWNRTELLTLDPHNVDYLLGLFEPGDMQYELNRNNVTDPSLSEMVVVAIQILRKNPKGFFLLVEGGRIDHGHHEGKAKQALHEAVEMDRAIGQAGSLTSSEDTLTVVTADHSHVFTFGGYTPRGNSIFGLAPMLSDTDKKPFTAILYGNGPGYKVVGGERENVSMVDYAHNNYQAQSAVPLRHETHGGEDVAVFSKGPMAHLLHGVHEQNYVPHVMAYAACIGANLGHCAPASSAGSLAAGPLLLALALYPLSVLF
# [3] = tested on: J774.A1; test: Confirmation of image-based Screening Assay for Inhibitors of Phagocytosis. [Related pubchem assays (depositor defined):AID1029, AID1643]; type: functional, cell-based; conditions: Mus musculus
# [4] = tested on: T-cell; test: inhibitors of CD8+ T cell–vesicle binding, dose response, mouse 2C CD8+ T cells, flow cytometry (AID 485284); type: functional
# [5] = biological target: Eukaryotic translation initiation factor 4E (Mus musculus, UniProt P63073); test: eIF4E–eIF4G protein interaction inhibitors, dose response, biochemical, TR-FRET (AID 855); type: functional;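 also: potency for disrupting eIF4E binding to eIF4GI seen as loss of FRET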
# [6] = biological target: T2, Hexokinase HKDC1 (Homo sapiens, UniProt Q2TB90); test: HKDC1 hexokinase inhibitors, dose response, biochemical, W721R variant (AID 504729); type: functional
# T2 sequence (Q2TB90 whole entry): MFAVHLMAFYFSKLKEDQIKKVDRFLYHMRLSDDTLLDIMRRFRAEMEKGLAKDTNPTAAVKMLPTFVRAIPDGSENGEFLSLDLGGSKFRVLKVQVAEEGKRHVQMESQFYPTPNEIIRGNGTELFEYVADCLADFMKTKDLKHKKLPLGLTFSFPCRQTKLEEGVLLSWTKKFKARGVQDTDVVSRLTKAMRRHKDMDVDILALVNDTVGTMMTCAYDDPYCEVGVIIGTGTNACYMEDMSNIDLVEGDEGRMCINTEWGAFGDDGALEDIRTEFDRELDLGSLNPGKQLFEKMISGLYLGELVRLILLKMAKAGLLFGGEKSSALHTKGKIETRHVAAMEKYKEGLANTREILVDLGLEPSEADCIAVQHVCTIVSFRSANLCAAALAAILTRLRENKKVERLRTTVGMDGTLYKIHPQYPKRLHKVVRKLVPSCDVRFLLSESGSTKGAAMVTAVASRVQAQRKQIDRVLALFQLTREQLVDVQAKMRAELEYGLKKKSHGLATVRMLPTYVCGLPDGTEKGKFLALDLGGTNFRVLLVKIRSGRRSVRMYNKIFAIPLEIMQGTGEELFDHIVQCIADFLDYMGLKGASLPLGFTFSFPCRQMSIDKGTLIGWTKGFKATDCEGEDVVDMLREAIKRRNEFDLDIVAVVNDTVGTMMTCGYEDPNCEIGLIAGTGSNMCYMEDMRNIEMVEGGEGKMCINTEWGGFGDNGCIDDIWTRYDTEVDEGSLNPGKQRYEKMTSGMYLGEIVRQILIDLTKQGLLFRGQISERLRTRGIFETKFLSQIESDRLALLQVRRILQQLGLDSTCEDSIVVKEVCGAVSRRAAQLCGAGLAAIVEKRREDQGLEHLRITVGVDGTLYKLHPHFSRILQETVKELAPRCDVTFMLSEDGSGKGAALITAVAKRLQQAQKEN
# [7] = biological target: T3, E3 ubiquitin-protein ligase XIAP (Homo sapiens, UniProt P98170); test: Counter Screen using XIAP-Bir3 of the Chemical Antagonists of IAP-family anti-apoptotic proteins confirmation assay. [Related pubchem assays (depositor defined):AID1018, AID1449, AID1513, AID1638, AID1749, AID1750, AID488957, AID488963]
# [8] = biological target: T3, E3 ubiquitin-protein ligase XIAP; test: XIAP antagonists, biochemical, IAP family, fluorescence polarization (AID 1018); type: functional
# [9] = biological target: T3, E3 ubiquitin-protein ligase XIAP; test: Chemical Antagonists of IAP-family anti-apoptotic proteins confirmation. [Related pubchem assays (depositor defined):AID1018, AID1513, AID1514, AID1638, AID1749, AID1750, AID488957, AID488963]
# [10] = biological target: Bcl-2-like protein 1 (Homo sapiens, UniProt Q07817); test: BCL-XL inhibitors, dose response, selectivity assay for MCL1 inhibitor project, biochemical, fluorescence polarization, 1536-well (AID 2218)
# [11] = biological target: T4, Small ubiquitin-related modifier 1 (Homo sapiens, UniProt P63165); test: inhibitors of SUMO1 partner interactions, dose response, biochemical, FRET (AID 624383); type: functional; conditions: read-out: IC50_Mean
# [12] = biological target: T5, Probable nicotinate-nucleotide adenylyltransferase (Staphylococcus aureus (strain N315), UniProt P65502); type: functional, Staphylococcus aureus subsp. aureus N315;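 as to IC50 Mean: confirmatory dose-response retesting of NadD inhibitor hits first found in an ultra-high-throughput screen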
# [13] = biological target: T4, Small ubiquitin-related modifier 1; test: inhibitors of SUMO1 peptide binding, dose response, biochemical, fluorescence polarization, uHTS hits (AID 624382); type: functional; conditions: read-out: IC50_Mean
# [14] = biological target: T5, Probable nicotinate-nucleotide adenylyltransferase; type: functional, Staphylococcus aureus subsp. aureus N315; conditions: read-out: IC50_Mean
# [15] = biological target: Peroxisome proliferator-activated receptor gamma (Homo sapiens, UniProt P37231); test: PPARg partial agonists, dose response, cell-based, luminescence, assay provider (AID 504447); type: functional
# [16] = biological target: Induced myeloid leukemia cell differentiation protein Mcl-1 (Homo sapiens, UniProt Q07820); test: MCL1-BIM BH3 interaction inhibitors, dose response, biochemical, fluorescence polarization, BIM-BH3 peptide, 1536-well (AID 2217)
# [17] = biological target: T6, Rac GTPase-activating protein 1 (Homo sapiens, UniProt Q9H0H5); test: MgcRacGAP GTPase-activating activity inhibitors, confirmation, biochemical, ADP Hunter fluorescence, primary and confirmatory (AID 624330); type: functional
# T6 sequence (Q9H0H5 whole entry): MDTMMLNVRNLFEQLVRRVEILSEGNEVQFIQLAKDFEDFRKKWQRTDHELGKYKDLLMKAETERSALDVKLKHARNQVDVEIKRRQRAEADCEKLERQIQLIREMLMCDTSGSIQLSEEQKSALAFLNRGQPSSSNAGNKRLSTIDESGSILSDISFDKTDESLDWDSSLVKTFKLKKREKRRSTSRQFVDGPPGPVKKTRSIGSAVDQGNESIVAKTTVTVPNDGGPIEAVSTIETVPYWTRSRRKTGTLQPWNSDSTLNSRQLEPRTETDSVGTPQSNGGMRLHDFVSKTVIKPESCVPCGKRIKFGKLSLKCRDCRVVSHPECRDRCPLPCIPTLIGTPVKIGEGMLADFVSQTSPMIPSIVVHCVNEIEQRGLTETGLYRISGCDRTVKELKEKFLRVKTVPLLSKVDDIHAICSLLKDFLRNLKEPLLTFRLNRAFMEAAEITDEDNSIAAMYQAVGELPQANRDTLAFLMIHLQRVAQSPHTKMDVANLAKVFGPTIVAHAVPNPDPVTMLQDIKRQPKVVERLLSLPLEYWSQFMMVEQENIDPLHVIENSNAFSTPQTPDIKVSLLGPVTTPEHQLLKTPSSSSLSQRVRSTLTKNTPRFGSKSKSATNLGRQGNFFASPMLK
# [18] = HeLa cell cytotoxicity, dose response, cytotoxicity control for MgcRacGAP inhibitor project (AID 624300); type: functional
# [19] = biological target: Voltage-dependent T-type calcium channel subunit alpha-1H (Homo sapiens, UniProt O95180); test: Cav3.2 T-type channel inhibitors, cell-based, synthetic library set 1, calcium flux (AID 493022); type: functional
# [20] = biological target: Mu-type opioid receptor (Homo sapiens, UniProt P35372); test: SAR Analysis of Antagonists of the MOR Receptor using an Image-Based Assay - Set 3. [Related pubchem assays (depositor defined):AID1777, AID1785, AID1786, AID1966, AID2133, AID2136, AID2284, AID2285, AID2420]; type: functional
# [21] = biological target: T7, Kappa-type opioid receptor (Homo sapiens, UniProt P41145); test: SAR analysis of small molecule antagonists of the kappa opioid receptor via a luminescent beta-arrestin assay - Set 4. [Related pubchem assays (depositor defined):AID1777, AID1778, AID1785, AID1786, AID1966, AID2133, AID2136, AID2285]; type: functional
# [22] = biological target: T7, Kappa-type opioid receptor; test: SAR analysis of Antagonists of the Kappa Opioid Receptor (KOR) using an Image-Based Assay - Set 4. [Related pubchem assays (depositor defined):AID1777, AID1785]; type: functional
# [23] = biological target: Delta-type opioid receptor (Homo sapiens, UniProt P41143); test: SAR Analysis of Antagonists of the DOR Receptor using an Image-Based Assay - Set 3. [Related pubchem assays (depositor defined):AID1777, AID1785]; type: functional;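 also: U2OS cells expressing DOR1 and beta-arrestin GFP stimulated with 100 nM SNC80; imaging of GFP-tagged beta-arrestin moving into spots after receptor activation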
# [24] = biological target: Hexokinase-1 (Homo sapiens, UniProt P19367); test: hexokinase 1 activators, dose response, selectivity assay for HKDC1 activator project, biochemical (AID 504762); type: functional
# [25] = biological target: T2, Hexokinase HKDC1; test: HKDC1 hexokinase activators, dose response, biochemical, W721R variant (AID 504730); type: functional
# [26] = tested on: HEK293; test: inhibitors of LMP1-driven NF-kB reporter, dose response, cell-based, HEK293, luciferase, cherry-pick (AID 588343); type: functional; conditions: Homo sapiens
# [27] = biological target: Nonstructural protein 1 (Influenza A virus, UniProt Q194T2); type: functional, Influenza A virus (A/California/07/2009(H1N1))
# [28] = biological target: T8, G-protein coupled receptor 35 (Homo sapiens, UniProt Q9HC97); test: SAR Analysis for the identification of Selective Antagonists of ERK1/2 Activity in GPR35-Overexpressing U2OS Cells - Set 2. [Related pubchem assays (depositor defined):AID2058, AID2079]; type: functional, cell-based
# [29] = biological target: T8, G-protein coupled receptor 35; test: SAR analysis of Antagonists of the GPR35 Receptor using an Image-Based Assay - Set 5. [Related pubchem assays (depositor defined):AID2058, AID2079]; type: functional
# [30] = biological target: G-protein coupled receptor 55 (Homo sapiens, UniProt Q9Y2T6); test: SAR Analysis of Selective Antagonists of GPR55 using an Image-Based Assay - Set 3. [Related pubchem assays (depositor defined):AID2058, AID2079]; type: functional
# [31] = biological target: T8, G-protein coupled receptor 35; test: GPR35 antagonists blocking zaprinast-driven arrestin recruitment, primary screen, imaging, U2OS, beta-arrestin-GFP, zaprinast agonist (AID 2058); type: functional;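 also: antagonist potency meaning inhibition of agonist-induced arrestin redistribution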
# T8 sequence (Q9HC97 whole entry): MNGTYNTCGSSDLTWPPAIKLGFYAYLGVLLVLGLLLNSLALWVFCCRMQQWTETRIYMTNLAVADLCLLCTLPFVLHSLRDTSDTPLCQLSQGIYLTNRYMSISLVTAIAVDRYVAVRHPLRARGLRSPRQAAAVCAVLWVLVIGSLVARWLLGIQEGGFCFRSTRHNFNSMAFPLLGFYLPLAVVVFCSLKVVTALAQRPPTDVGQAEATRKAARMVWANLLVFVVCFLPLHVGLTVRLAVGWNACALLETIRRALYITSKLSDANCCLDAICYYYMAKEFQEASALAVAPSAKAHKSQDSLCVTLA
# T3 sequence (P98170 whole entry): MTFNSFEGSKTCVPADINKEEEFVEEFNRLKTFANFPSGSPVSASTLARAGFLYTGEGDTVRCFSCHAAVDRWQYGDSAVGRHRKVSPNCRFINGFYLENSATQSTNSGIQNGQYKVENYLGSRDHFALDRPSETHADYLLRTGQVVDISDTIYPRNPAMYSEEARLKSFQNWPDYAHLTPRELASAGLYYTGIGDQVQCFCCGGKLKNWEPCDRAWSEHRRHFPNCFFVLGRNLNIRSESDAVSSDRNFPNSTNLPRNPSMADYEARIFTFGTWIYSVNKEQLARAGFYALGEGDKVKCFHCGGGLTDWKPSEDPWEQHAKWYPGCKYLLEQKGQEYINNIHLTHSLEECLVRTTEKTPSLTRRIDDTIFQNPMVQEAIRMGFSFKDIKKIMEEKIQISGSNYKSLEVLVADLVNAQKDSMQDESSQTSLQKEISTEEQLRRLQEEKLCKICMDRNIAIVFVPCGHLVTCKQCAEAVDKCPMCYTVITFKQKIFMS
# T4 sequence (P63165 whole entry): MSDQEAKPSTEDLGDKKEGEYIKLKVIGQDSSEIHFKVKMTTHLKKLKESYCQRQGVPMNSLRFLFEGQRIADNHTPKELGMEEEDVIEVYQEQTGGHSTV
# T7 sequence (P41145 whole entry): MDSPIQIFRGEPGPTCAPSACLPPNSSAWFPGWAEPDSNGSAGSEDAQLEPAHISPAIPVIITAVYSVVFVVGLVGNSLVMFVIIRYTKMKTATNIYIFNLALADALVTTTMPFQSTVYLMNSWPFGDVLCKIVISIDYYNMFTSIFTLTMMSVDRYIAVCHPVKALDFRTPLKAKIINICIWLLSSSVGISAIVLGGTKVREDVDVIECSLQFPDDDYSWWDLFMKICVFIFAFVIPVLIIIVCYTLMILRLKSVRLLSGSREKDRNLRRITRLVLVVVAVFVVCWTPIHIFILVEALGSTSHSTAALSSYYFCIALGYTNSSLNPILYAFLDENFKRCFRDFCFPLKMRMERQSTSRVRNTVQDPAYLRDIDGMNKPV
# T5 sequence (P65502 whole entry): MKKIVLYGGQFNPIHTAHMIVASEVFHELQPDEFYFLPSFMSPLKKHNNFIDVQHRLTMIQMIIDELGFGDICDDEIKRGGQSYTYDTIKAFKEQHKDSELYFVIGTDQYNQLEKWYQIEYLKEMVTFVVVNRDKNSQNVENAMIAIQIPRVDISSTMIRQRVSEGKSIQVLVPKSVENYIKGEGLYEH
# Chain of Bcl-2-like protein 1 (Q07817 whole entry): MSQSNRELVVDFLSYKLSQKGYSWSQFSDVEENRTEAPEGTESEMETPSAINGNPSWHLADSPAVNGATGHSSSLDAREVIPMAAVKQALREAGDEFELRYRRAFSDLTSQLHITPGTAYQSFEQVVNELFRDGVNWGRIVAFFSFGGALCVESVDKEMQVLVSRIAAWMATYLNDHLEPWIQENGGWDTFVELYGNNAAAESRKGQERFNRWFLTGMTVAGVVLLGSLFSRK
# Chain of Nonstructural protein 1 (Q194T2 whole entry): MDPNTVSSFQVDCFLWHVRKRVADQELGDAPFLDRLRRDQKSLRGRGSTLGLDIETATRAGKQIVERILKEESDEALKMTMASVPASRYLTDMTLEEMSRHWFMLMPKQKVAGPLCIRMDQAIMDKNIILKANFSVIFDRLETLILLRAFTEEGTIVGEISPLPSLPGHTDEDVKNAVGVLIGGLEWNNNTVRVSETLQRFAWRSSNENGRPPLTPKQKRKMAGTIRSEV
# Chain of Glyceraldehyde-3-phosphate dehydrogenase (P04406 whole entry): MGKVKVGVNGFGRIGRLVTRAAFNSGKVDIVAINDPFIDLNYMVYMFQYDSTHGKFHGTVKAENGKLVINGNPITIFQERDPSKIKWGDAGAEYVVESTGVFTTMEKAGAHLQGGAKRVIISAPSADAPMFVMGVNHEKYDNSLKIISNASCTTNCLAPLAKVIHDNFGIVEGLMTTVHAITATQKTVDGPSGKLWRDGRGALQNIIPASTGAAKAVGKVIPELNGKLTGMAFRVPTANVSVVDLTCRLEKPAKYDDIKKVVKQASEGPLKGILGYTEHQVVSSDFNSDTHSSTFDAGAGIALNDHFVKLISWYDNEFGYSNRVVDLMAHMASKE
# Chain of Mu-type opioid receptor (P35372 whole entry): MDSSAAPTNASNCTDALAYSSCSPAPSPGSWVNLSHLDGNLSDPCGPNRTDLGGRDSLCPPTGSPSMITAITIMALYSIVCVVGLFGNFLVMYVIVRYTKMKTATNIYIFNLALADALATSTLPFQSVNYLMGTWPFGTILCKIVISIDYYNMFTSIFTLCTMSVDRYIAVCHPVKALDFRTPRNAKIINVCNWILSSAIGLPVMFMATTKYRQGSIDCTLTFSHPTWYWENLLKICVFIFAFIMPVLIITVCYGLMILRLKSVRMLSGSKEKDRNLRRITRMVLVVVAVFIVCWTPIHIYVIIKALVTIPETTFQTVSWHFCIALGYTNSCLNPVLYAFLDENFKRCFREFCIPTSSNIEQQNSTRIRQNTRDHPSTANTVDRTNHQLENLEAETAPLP
# Chain of Eukaryotic translation initiation factor 4E (P63073 whole entry): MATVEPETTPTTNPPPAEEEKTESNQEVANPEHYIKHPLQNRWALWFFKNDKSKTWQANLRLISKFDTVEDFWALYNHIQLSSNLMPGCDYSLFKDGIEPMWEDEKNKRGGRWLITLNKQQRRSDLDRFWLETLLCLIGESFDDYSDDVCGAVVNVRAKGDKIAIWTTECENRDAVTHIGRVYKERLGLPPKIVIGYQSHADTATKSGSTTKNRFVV
# Chain of Peroxisome proliferator-activated receptor gamma (P37231 whole entry): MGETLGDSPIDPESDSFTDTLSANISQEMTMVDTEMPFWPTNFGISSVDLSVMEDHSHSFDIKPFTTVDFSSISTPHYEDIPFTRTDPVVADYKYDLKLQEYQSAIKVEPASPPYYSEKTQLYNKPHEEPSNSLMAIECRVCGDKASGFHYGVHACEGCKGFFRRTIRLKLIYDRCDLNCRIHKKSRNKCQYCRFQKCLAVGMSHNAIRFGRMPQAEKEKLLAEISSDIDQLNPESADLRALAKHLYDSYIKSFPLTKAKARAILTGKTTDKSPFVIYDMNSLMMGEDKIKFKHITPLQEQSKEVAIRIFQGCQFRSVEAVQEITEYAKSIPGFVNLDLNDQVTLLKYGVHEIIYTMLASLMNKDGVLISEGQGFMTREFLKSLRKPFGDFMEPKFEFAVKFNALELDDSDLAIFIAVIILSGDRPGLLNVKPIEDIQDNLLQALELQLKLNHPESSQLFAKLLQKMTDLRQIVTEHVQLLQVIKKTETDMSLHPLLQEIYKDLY
# Chain of G-protein coupled receptor 55 (Q9Y2T6 whole entry): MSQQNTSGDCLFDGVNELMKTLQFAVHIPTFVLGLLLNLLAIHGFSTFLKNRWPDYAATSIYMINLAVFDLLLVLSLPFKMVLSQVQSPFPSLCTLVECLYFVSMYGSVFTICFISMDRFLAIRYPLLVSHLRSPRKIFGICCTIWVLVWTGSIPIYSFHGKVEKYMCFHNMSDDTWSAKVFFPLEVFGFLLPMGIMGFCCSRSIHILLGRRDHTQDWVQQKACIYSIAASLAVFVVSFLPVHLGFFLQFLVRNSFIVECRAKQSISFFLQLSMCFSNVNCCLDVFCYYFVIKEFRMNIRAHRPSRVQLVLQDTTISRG
# Chain of Induced myeloid leukemia cell differentiation protein Mcl-1 (Q07820 whole entry): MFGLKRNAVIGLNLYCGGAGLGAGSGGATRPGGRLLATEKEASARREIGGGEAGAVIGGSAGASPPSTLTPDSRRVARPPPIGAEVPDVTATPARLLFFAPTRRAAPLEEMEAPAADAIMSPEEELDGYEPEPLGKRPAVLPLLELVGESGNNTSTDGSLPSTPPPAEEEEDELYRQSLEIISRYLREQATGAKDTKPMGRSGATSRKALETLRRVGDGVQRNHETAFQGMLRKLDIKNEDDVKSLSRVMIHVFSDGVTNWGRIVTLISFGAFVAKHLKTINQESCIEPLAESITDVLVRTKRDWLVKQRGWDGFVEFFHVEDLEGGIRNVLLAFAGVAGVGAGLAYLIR
# Chain of Delta-type opioid receptor (P41143 whole entry): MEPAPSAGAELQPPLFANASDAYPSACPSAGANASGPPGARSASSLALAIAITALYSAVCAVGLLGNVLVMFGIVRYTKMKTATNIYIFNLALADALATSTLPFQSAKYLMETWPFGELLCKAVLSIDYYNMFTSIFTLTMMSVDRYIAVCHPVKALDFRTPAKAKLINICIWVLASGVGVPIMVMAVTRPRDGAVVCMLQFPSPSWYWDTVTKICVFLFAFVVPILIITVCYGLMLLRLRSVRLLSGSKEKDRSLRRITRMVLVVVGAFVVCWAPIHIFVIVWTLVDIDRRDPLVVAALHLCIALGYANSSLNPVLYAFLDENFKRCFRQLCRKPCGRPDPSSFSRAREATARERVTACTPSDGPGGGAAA
structure (smiles),measurement,setting,value
c1cncc(-n2cncn2)c1,IC50,[1],> 100 µM (not active)
same,IC50,[2],> 100 µM (inactive)
O=C(COc1ccc(-c2ccccc2)cc1)N1CCN(S(=O)(=O)Cc2ccccc2)CC1,IC50,[3],> 25 µM (inactive)
CCN(CC)CCNC(=O)CCCNC(=O)Cn1cnc2sc(C)c(C)c2c1=O,EC50,[4],9.52 µM (active)
O=C(O)[C@@H](c1ccccc1)N1Cc2ccccc2C1=O,IC50,[5],13.8 µM (active)
same,IC50,[6],13.7 µM (active)
same,IC50,[7],> 200 µM (inactive)
same,IC50,[8],28.3 µM (active)
same,IC50,[9],65.6 µM (active)
O=C(C1=C(O)C(=O)N(c2nc3ccc(Cl)cc3s2)C1c1ccco1)c1ccco1 (stereo unspecified),IC50,[10],> 109 µM (not active)
same,IC50,[11],8.8 µM (active)
same,IC50,[12],13.8 µM (active)
same,IC50,[13],> 66.6 µM (inactive)
same,IC50,[14],56.8 µM (active)
same,EC50,[15],0.7 µM (active)
same,IC50,[16],28.8 µM (not active)
same,IC50,[17],118 µM (active)
same,CC50,[18],100 µM (active)
CC(C)(Oc1ccccc1)C(=O)Nc1nnc(-c2ccc3ccccc3c2)o1,EC50,[19],1.1 µM (active)
Cc1ccc(S(=O)(=O)NCc2ccc(C(=O)NCCN3CCC(c4ccccc4)CC3)cc2)cc1,IC50,[20],3.88 µM (active)
same,IC50,[21],> 20 µM (inactive)
same,IC50,[22],10.6 µM (inactive)
same,IC50,[23],> 32 µM (inactive)
CC(=NNC(=S)N1CCCCC1)c1cccc(C)n1,EC50,[24],> 80 µM (inactive)
same,EC50,[25],14.5 µM (active)
same,AC50,[26],2.74 µM (active)
same,IC50,[27],3.84 µM (active)
COC(=O)c1cnn(-c2ccc(F)cc2F)c1/C=N/NC(=S)NC(C)(C)C,IC50,[28],1.39 µM (active)
same,IC50,[29],0.16 µM (active)
same,IC50,[30],9.08 µM (active)
same,IC50,[31],< 0.5 µM (active)
